According to patent EP0514216A1, “Antihypotensive benzofuran derivatives with N-linked 1H-imidazolyl-methyl-5-carboxamide substituents” (GLAXO GROUP LIMITED, priority 1991, dated 1992):

Tested on: renal-ligated hypertensive rats
Assay: anti-hypertensive activity in vivo using renal-ligated hypertensive rats
Design: unit not given here
Settings: for Reduction in diastolic blood pressure after 7h. i.a.: 0.5mg/kg intra-arterially (i.a.); for Reduction in diastolic blood pressure after 7h. p.o.: 0.5mg/kg orally (p.o.)
Description: Compounds of the present invention are also analysed for their anti-hypertensive activity in vivo using renal-ligated hypertensive rats.

Structure (SMILES)	Reduction in diastolic blood pressure after 7h. i.a.	Reduction in diastolic blood pressure after 7h. p.o.
CCCc1nc(Cl)c(C(=O)NC)n1Cc1ccc2oc(-c3ccccc3NS(=O)(=O)C(F)(F)F)c(Br)c2c1 [Example 2, 1-[[3-Bromo-2-[2-[[(trifluoromethyl)sulphonyl]amino]phenyl]-5-benzofuranyl]methyl]-4-chloro-N-methyl-2-propyl-1H-imidazole-5-carboxamide]	-43	-60
CCc1nc(Cl)c(C(=O)NC)n1Cc1ccc2oc(-c3ccccc3NS(=O)(=O)C(F)(F)F)c(Br)c2c1 [Example 12, 1-[[3-Bromo-2-[2-[[(trifluoromethyl)sulphonyl]amino]phenyl]-5-benzofuranyl]methyl]-4-chloro-2-ethyl-N-methyl-1H-imidazole-5-carboxamide]	-42	-31
CCc1nc(C)c(C(=O)NC)n1Cc1ccc2oc(-c3ccccc3NS(=O)(=O)C(F)(F)F)c(Br)c2c1 [Example 13, 1-[[3-Bromo-2-[2-[[(trifluoromethyl)sulphonyl]amino]phenyl]-5-benzofuranyl]methyl]-2-ethyl-4-methyl-N-methyl-1H-imidazole-5-carboxamide]	-39	-54
CCc1nc(Cl)c(C(N)=O)n1Cc1ccc2oc(-c3ccccc3NS(=O)(=O)C(F)(F)F)c(Br)c2c1 [Example 1, 1-[[3-Bromo-2-[2-[[(trifluoromethyl)sulphonyl]amino]phenyl]-5-benzofuranyl]methyl]-4-chloro-2-ethyl-1H-imidazole-5-carboxamide]	-49	-55
